Laboratory results published in patent US11919856B2, “Compounds” (UCL BUSINESS LTD, priority 2018, dated 2024).

What was measured:
α1-antitrypsin [1] = experiment: End-point constant-temperature heat-induced polymerisation assay (non-denaturing PAGE); assay type: biochemical, human; details: constant-temperature experiment, versus absence
Procedure: Resistance to heat-induced polymerisation was also determined using an end-point constant-temperature assay. Plasma purified M and Z α1-antitrypsin were diluted to 0.2 mg/ml in PBS with 5% v/v glycerol, incubated with 10 μM Compound 1 (or with DMSO alone) for 2 hours and then heated in 20 μl aliquots for a further 4 hours in a thermal cycler with a 48-65° C. gradient applied across the plate. Samples were analysed on a 3-12% w/v acrylamide Bis-Tris Native-PAGE gel (Life Technologies).
(§1) Polymerisation of α1-antitrypsin occurs from a transient intermediate state known as M*, that is readily populated by the Z variant. One of the hallmarks of M* is its recognition by environment-sensitive fluorescent reporter dyes. Thermal shift assays that make use of the dye SYPRO Orange report the stability of the protein native state against heat-induced unfolding. […] Native state stability can also be probed by equilibrium unfolding using chemical denaturants, where a peak in bis-ANS fluorescence corresponds with a maximally populated unfolding intermediate.

α1-antitrypsin [2] = experiment: Equilibrium unfolding with guanidine hydrochloride (bis-ANS fluorescence); assay type: biochemical; details: guanidinium hydrochloride, 50 μM Compound 1; 1.2 M in its absence
Procedure: Bis-ANS is a dye that reports the appearance of the unfolding intermediate of α1-antitrypsin (Dafforn et al. J Biol Chem. 1999; 274:9548-55.). In a microplate, 10 μl aliquots of M and Z α1-antitrypsin at 0.5 mg/ml with 100 μM bis-ANS and 100 μM Compound 1 (or an equivalent volume of DMSO) were rapidly mixed with various concentrations of guanidine hydrochloride giving a final concentration of 0-6 M denaturant in PBS. Fluorescence intensity measurements of bis-ANS (λex=385 nm, λem=490 nm) were recorded once a stable signal was achieved, and the values scaled to lie between 0 and 1.0.
as §1

[3] = Panel of in vitro assays for off-targets predictive of safety liabilities
Source text: (§2) In order to investigate suitability of Compound 1 for progression into in vivo studies and the potential for taking forward as a clinical candidate for testing in human, Compound 1 was profiled against a panel of in vitro assays for off-targets considered predictive of potential safety liabilities. […] The measured potency of these marginal activities were at least 10-fold below the cellular activity of Compound 1 at blocking Z α1-antitrypsin polymerisation (pEC50 6.3). Loss of inhibitory activity represents a means by which possible off-target engagement with other serpins can be evaluated. However in contrast to α1-antitrypsin upon incubation with 50 μM Compound 1 the inhibitory activity of the homologues antithrombin, neuroserpin and antichymotrypsin was not affected.

antithrombin = antithrombin (Homo sapiens, UniProt P01008); experiment: Serpin inhibitory activity, antithrombin; assay type: biochemical; details: incubation with 50 μM
Chain of antithrombin (P01008 33-464): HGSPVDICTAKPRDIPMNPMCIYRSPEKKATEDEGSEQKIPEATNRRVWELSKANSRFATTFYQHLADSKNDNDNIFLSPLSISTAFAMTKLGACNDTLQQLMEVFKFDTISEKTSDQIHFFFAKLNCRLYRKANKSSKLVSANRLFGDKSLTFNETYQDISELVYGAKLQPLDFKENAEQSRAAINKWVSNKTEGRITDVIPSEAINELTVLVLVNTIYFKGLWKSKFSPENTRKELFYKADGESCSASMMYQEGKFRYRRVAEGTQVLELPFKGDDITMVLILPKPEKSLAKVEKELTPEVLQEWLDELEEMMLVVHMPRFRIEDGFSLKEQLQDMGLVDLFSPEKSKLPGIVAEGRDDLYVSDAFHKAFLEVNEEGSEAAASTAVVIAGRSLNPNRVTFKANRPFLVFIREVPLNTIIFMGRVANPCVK
Source text: as §2

neuroserpin = molecular target: T1, neuroserpin (Homo sapiens, UniProt Q99574); experiment: Serpin inhibitory activity, neuroserpin; assay type: biochemical; details: incubation with 50 μM
T1 sequence (Q99574 17-410): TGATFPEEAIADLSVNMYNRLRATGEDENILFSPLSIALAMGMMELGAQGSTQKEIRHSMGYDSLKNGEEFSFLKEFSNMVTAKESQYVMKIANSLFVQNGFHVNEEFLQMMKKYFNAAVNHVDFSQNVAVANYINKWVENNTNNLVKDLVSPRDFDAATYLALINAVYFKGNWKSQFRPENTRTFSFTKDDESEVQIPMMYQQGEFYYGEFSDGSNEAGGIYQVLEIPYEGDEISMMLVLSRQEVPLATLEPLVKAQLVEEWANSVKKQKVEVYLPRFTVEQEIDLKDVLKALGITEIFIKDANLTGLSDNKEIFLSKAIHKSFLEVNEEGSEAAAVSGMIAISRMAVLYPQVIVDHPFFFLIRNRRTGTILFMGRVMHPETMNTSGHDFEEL
Source text: as §2

human serum albumin = human serum albumin (Homo sapiens, UniProt P02768); experiment: Binding to human serum albumin; assay type: in vitro ADME
Chain of human serum albumin (P02768 25-609): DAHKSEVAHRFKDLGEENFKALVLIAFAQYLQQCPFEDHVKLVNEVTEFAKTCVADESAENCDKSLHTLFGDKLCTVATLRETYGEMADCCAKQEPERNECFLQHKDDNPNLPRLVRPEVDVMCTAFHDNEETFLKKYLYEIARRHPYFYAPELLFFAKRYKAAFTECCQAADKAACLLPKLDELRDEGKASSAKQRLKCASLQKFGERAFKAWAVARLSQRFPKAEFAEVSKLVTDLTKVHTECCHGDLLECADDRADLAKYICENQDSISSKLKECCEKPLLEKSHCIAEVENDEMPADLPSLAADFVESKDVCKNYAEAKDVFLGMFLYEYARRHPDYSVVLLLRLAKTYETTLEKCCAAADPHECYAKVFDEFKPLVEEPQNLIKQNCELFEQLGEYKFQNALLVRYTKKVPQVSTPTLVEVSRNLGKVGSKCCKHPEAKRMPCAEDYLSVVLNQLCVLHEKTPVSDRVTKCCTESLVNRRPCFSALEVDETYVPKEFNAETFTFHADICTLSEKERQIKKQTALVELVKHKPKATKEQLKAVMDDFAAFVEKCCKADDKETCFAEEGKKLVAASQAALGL

Solubility in FaSSIF = assay type: physicochemical
Permeability = assay type: in vitro ADME
[4] = In vitro clearance in cryopreserved hepatocytes, dog; assay type: in vitro ADME
Z α1-antitrypsin [5] = molecular target: T2, Z α1-antitrypsin (Homo sapiens, UniProt P01009, E366K/V237A); experiment: Polymerisation of Z α1-antitrypsin in iPSC-derived hepatocytes (ZZ genotype); assay type: cell-based; parameters: a random insertion of the human Z α1-antitrypsin gene; from tissue; host or cells: liver and plasma of Z α1-antitrypsin transgenic mice (human Z transgene); details: read-out: pIC50, polymerisation of Z α1-antitrypsin (converted)
T2 sequence (P01009 25-418 V237A/E366K): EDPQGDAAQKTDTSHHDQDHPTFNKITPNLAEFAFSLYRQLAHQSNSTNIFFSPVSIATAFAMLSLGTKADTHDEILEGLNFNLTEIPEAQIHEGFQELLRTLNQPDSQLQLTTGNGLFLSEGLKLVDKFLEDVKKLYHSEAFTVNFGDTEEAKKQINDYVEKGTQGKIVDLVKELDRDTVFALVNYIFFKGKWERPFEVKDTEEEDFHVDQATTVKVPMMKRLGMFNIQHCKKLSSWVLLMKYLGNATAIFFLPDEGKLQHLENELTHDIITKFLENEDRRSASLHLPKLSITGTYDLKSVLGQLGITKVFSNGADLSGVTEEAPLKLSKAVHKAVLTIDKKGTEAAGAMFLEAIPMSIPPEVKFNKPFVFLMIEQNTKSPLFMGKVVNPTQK
Procedure: (§3) In order to confirm that the potency and efficacy of Compound 1 in CHO-TET-ON-Z-A1AT was a reasonable estimate of what could be expected in hepatocytes with endogenous levels of expression, the effect of Compound 1 on the secretion and polymerisation of Z α1-antitrypsin was measured in iPSC-derived hepatocytes with the ZZ α1-antitrypsin genotype (Yusa et al. Nature. 2011; 478:391-4).

Z α1-antitrypsin [6] = molecular target: T2, Z α1-antitrypsin; experiment: Secretion of Z α1-antitrypsin from iPSC-derived hepatocytes (ZZ genotype); assay type: cell-based; parameters: a random insertion of the human Z α1-antitrypsin gene; from tissue; host or cells: liver and plasma of Z α1-antitrypsin transgenic mice (human Z transgene)
Procedure: as §3

Which results are given for `CCC[C@@H](NC(=O)c1cccc2c1CC(=O)N2)[C@@H](O)c1cccc(F)c1C` [Compound 1, N-[(1S,2R)-1-(3-fluoro-2-methylphenyl)-1-hydroxypentan-2-yl]-2-oxo-2,3-dihydro-1H-indole-4-carboxamide]?
temperature at which oligomers are generated (α1-antitrypsin [1]): higher temperatures; denaturant concentration at peak bis-ANS fluorescence (maximally populated unfolding intermediate) (α1-antitrypsin [2]): 1.8 M; activity against off-target panel [3]: inactive against the majority of these targets; marginal activities in off-target panel [3]: low level of activity close to the lower limit of sensitivity in 16 assays; potency of marginal off-target activities below cellular activity ([3]; relative to cellular activity at blocking Z α1-antitrypsin polymerisation): at least 10 fold; inhibitory activity of antithrombin (antithrombin): not affected; inhibitory activity of neuroserpin (neuroserpin): not affected; binding to human serum albumin (human serum albumin): 84.2%; solubility of amorphous drug substance in FaSSIF (Solubility in FaSSIF): good solubility; Permeability (Permeability): high; in vitro clearance in cryopreserved hepatocytes [4]: < 0.65 mL/min/g; IC50 (Z α1-antitrypsin [5]): 398 nM; increase of secreted levels of Z α1-antitrypsin (Z α1-antitrypsin [6]): approximately 3 fold; EC50 (Z α1-antitrypsin [6]; read-out: pEC50, secretion of Z α1-antitrypsin (converted)): 316 nM
